{
  "source": "patent US20110301131A1",
  "about": "“Drug Delivery Implants and Processes for Their Preparation” (priority 2008, published 2011)",
  "origin": "cited, not measured here",
  "details": "bupivacaine used in regional anaesthesia",
  "data": [
    {"smiles": "CCCCN1CCCCC1C(=O)Nc1c(C)cccc1C", "note": "(stereo not shown) [bupivacaine]", "values": [
      {"measurement": "Half-life", "value": "about 3 hours"}
    ]}
  ]
}
